In patent US20160168140A1, “HETEROCYCLIC COMPOUNDS AS ANTIBIOTIC POTENTIATORS” (priority 2014, published 2016):

What follows are compounds tested on Acinetobacter baumannii (Ab23) (assay: MIC shift assay of antibiotics (broth microdilution)). Details: compound concentration 1 μM; fold shift of colistin MIC; nc = no changeover or no shift.
Assay type: cell-based
Description: Minimum inhibitory concentration (MIC) shift assays were performed to determine if the test compounds could alter the MIC of existing antibacterial drugs (e.g., ciprofloxacin and colistin) for E. coli, Acinetobacter baumannii, Klebsiella pneumoniae, Pseudomonas aeruginosa, and Enterobacter cloacae. The MIC shift assay is based on the standard broth microdilution MIC determination protocol of Wiegand et al, Nat Protoc. 3(2):163-75 (2008), with slight modifications that allow for the screening of up to seven test compounds in a single plate.
On the day before an assay, bacteria were grown overnight in cation-adjusted Mueller Hinton broth (CAMHB; Teknova, Hollister, Calif.) at 37° C. in an orbital shaker and sub-cultured at a 1:200 dilution the following morning. The cells were grown to OD600=0.5 to 0.8 and then diluted to OD600=0.01. From a serial dilution of each antibiotic at (50 μL of 2× concentrated stock solutions) several concentrations were added to the wells of a sterile, transparent round-bottom 96-well plate (Phenix Research Products, Candler, N.C.), and diluted cells (50 μL) were added to the plates for a starting OD600 of 0.005. […] A row of wells lacking test compound but containing the antibiotic was used to determine the MIC of that antibiotic alone. A column of wells lacking both antibiotic and test compound served as a growth control, and an additional column containing only CAMHB was included as a sterile blank control.
The plates were incubated for 18 to 20 h at 37° C. in an orbital shaker, and the cell density (OD600) was determined the following day in a microplate reader (PolarStar Optima, BMG Labtech). The MIC shift was determined by comparing the MIC of the antibiotic alone to the MIC of the antibiotic plus test compound.

| SMILES | colistin MIC shift, Ab23 at (compd concentration) |
| --- | --- |
| FC(F)(F)c1cccc(-c2c[nH]c3cc(Cl)c(Cl)cc23)c1 [compound 431] | 4x (1 μM); |

Same assay, conditions: compound concentration 2 μM; fold shift of colistin MIC; nc = no changeover or no shift

| SMILES | colistin MIC shift, Ab23 at (compd concentration) |
| --- | --- |
| O=C(Nc1ccc(Cl)c(Cl)c1)c1c[nH]c2ccc(Br)cc12 [compound 420] | 16x |
| O=C(Nc1ccc(Cl)c(Cl)c1)c1c[nH]c2cc(Br)ccc12 [compound 424] | 4x |
| FC(F)(F)c1cccc(-c2c[nH]c3ccc(Cl)cc23)c1 [compound 430] | 16x |
| FC(F)(F)c1cccc(-c2c[nH]c3cc(Cl)c(Cl)cc23)c1 [compound 431] | ≧16x (2 μM) |
| Clc1ccc(-c2c[nH]c3cc(Cl)c(Cl)cc23)cc1Cl [compound 432] | 8x |
| FC(F)(F)c1cc(-c2c[nH]c3cc(Cl)c(Cl)cc23)ccc1Cl [compound 436] | 4x |
| CC(C)(c1c[nH]c2cc(Cl)c(Cl)cc12)c1c[nH]c2cc(Cl)c(Cl)cc12 [compound 440] | ≧16x |
| FC(F)(F)c1ccc2c(-c3ccc(Cl)c(Cl)c3)n[nH]c2c1 [compound 441] | ≧16x |

Same assay, conditions: compound concentration 4 μM; fold shift of colistin MIC; nc = no changeover or no shift

| SMILES | colistin MIC shift, Ab23 at (compd concentration) |
| --- | --- |
| Clc1ccc(CCc2c[nH]c3ccc(Br)cc23)cc1Cl [compound 411] | 8x |
| Clc1ccc(NCc2c[nH]c3ccc(Br)cc23)cc1Cl [compound 418] | 16 x |
| FC(F)(F)c1cc(Cl)cc(-c2c[nH]c3cc(Cl)c(Cl)cc23)c1 [compound 434] | 32x |
| FC(F)(F)c1cccc(-c2ccc3[nH]cc(-c4ccc(Cl)c(Cl)c4)c3c2)c1 [compound 438] | 2x |
| CCN(CC)CCCC(C)Nc1nc(-c2ccc3cc(Cl)c(Cl)cc3c2)nc2c(C)cccc12 (stereo not shown) [compound 443] | 16x |
| Cc1cccc2c(NCCCN(C)C)nc(-c3ccc4cc(Cl)c(Cl)cc4c3)nc12 [compound 444] | 16x |
| Cc1cccc2c(NCCCN(C)C)nc(-c3cc(Br)c4ccccc4c3)nc12 [compound 446] | 8-16x |
| CCN(CC)CCCC(C)Nc1nc(-c2cc(Cc3ccccc3)c3ccccc3c2)nc2c(C)cccc12 (stereo not shown) [compound 447] | 4x |
| Cc1cccc2c(NCCCN3CCNCC3)nc(-c3cc(Br)cc(C(F)(F)F)c3)nc12 [compound 462] | 64x |
| CCN(CC)CCCC(C)Nc1nc(-c2cccc(-c3cccc(C(F)(F)F)c3)c2)nc2c(C)cccc12 (stereo not shown) [compound 465] | 8-16x |
| Cc1cccc2c(NCCCN(C)C)nc(-c3cccc(-c4cccc(C(F)(F)F)c4)c3)nc12 [compound 466] | 8-16x |
| COc1ccc2c(NCCCN(C)C)nc(/C=C/c3ccc(Cl)c(Cl)c3)nc2c1C [compound 467, (E)-N^1-(2-(3,4-dichlorostyryl)-7-methoxy-8-methylquinazolin-4-yl)-N^3,N^3-dimethylpropane-1,3-diamine] | 16x |
| Cc1cccc2c(NCCCN(C)C)nc(-c3cccc(-c4ccc(Cl)c(Cl)c4)c3)nc12 [compound 468] | 16-32x |
| CCN(CC)CCCC(C)Nc1nc(-c2cccc(-c3cc(Cl)cc(Cl)c3)c2)nc2c(C)cccc12 (stereo not shown) [compound 469] | 16x |
| Cc1cccc2c(NCCCN(C)C)nc(-c3cccc(-c4cc(Cl)cc(Cl)c4)c3)nc12 [compound 470] | 2x |
| CCN(CC)CCCC(C)Nc1nc(-c2cccc(-c3ccc(C(F)(F)F)cc3F)c2)nc2c(C)cccc12 (stereo not shown) [compound 471] | 8x |

| SMILES | colistin MIC shift, Ab23 at (compd concentration) |
| --- | --- |
| Cc1cccc2c(NCCCN(C)C)nc(-c3cccc(-c4ccc(C(F)(F)F)cc4F)c3)nc12 [compound 472] | 16x |
| CCN(CC)CCCC(C)Nc1nc(-c2cccc(-c3cc(C(F)(F)F)ccc3F)c2)nc2c(C)cccc12 (stereo not shown) [compound 473] | 16x |
| Cc1cccc2c(NCCCN(C)C)nc(-c3cccc(-c4cc(C(F)(F)F)ccc4F)c3)nc12 [compound 474] | 32x |
| CCN(CC)CCCC(C)Nc1nc(-c2cccc(-c3cc(F)cc(C(F)(F)F)c3)c2)nc2c(C)cccc12 (stereo not shown) [compound 475] | 4-8x |
| CCN(CC)CCCC(C)Nc1nc(-c2cccc(-c3ccc(C(F)(F)F)c(F)c3)c2)nc2c(C)cccc12 (stereo not shown) [compound 476] | 16x |
| CNCCCNc1nc(-c2cccc(-c3cccc(C(F)(F)F)c3)c2)nc2c(C)cccc12 [compound 478] | 4x |
| CCN(CC)CCCC(C)Nc1nc(-c2cccc(-c3ccccc3)c2)nc2cc(C(F)(F)F)ccc12 (stereo not shown) [compound 479] | 8x |
| CN(C)CCCNc1nc(-c2cccc(-c3ccccc3)c2)nc2cc(C(F)(F)F)ccc12 [compound 480] | 4x |
| CCN(CC)CCCC(C)Nc1nc(-c2cccc(-c3cc(C(F)(F)F)ccc3F)c2)nc2cc(C(F)(F)F)ccc12 (stereo not shown) [compound 481] | 8x |
| CN(C)CCCNc1nc(-c2cccc(-c3cc(C(F)(F)F)ccc3F)c2)nc2cc(C(F)(F)F)ccc12 [compound 482] | 32x |
| CCN(CC)CCCC(C)Nc1nc(-c2cccc(-c3cccc(Cl)c3Cl)c2)nc2c(C)cccc12 (stereo not shown) [compound 483] | 16x |
| Cc1cccc2c(NCCCN(C)C)nc(-c3cccc(-c4cccc(Cl)c4Cl)c3)nc12 [compound 484] | 16x |
| CN(C)CCCNc1nc(-c2cccc(-c3ccccc3)c2)nc2c(Cl)cccc12 [compound 486] | 4x |
| CN(C)CCCNc1nc(-c2cccc(-c3ccc(Cl)c(Cl)c3)c2)nc2c(Cl)cccc12 [compound 488] | 32x |
| CN(C)CCCNc1nc(-c2cccc(-c3ccc(C(F)(F)F)c(F)c3)c2)nc2c(Cl)cccc12 [compound 489] | 16x |

Same assay, conditions: compound concentration 8 μM; fold shift of colistin MIC; nc = no changeover or no shift

| SMILES | colistin MIC shift, Ab23 at (compd concentration) |
| --- | --- |
| O=C(Nc1cccc(C(F)(F)F)c1)c1c[nH]c2ccc(Br)cc12 [compound 428] | 4x |
| CCN(CC)CCCC(C)Nc1nc(-c2cc(Br)c3ccccc3c2)nc2c(C)cccc12 (stereo not shown) [compound 445] | 16x |

Same assay, conditions: compound concentration 10 μM; fold shift of colistin MIC; nc = no changeover or no shift

| SMILES | colistin MIC shift, Ab23 at (compd concentration) |
| --- | --- |
| O=C(O)Cn1cc(/C=C/c2ccc(Cl)c(Cl)c2)c2ccc(F)cc21 [compound 416] | 4x |
| O=C(O)CCn1cc(/C=C/c2ccc(Cl)c(Cl)c2)c2ccc(F)cc21 [compound 417] | 8x |
| FC(F)(F)c1cc(-c2c[nH]c3cc(Cl)c(Cl)cc23)cc(C(F)(F)F)c1 [compound 435] | 16x |
| Cc1cccc2c(NCCCN(C)C)nc(-c3cccc(Br)c3)nc12 [compound 455] | 4x |
| Cc1cccc2c(NCCCN(C)C)nc(-c3ccc(Cl)c(Cl)c3)nc12 [compound 458] | 16x |
| Cc1cccc2c(NCCCN3CCOCC3)nc(-c3cc(Br)cc(C(F)(F)F)c3)nc12 [compound 459] | 8x |
| CCN(CC)CCCC(C)Nc1nc(-c2cccc(-c3ccccc3)c2)nc2c(Cl)cccc12 (stereo not shown) [compound 485] | 8x |
